As a reminder, the IC50 is the concentration needed to halve the response being measured. A low value points to higher potency.

Drawing on patent publication US5103007A, “Lipids” (Takeda Chemical Industries, Ltd., priority 1988, dated 1992), this text covers IC50 for 29 compounds.

Structures are written as SMILES. Values after ≈ are worked out from the molar mass of the structure shown.

Assay [1] concerns human colon adenocarcinoma (colon 205 cells). Briefly: Inhibition of multiplication of human colon adenocarcinoma (colon 205 cells), MTT assay. Type of assay: cell-based. Conditions: 72 hours. The protocol:
(§1) The effect (IC50) of the compounds obtained by Examples in inhibiting multiplication of human nasopharynx cancer (KB cells) and human colon adenocarcinoma (colon 205 cells) Each well of a 96-well microtiter plate was inoculated with 0.1 ml of human nasopharynx cancer (KB cells) (1×10^4 /ml) or human colon adenocarcinoma (colon 205 cells) (2×10^4 /ml), which was then subjected to cultivation by allowing to stand at 37° C. for 24 hours in 5% CO2. To the culture was added a 10% MEM solution (manufactured by Nissui Seiyaku or RPMI-1640), and cultivation was continued at 37° C. for 72 hours in 5% CO2. Then, the culture solution was removed with a micro-pipette. […] Incubation was conducted at 37° C for 4 hours, to which was then added 0.1 ml of a 10% SDS (Wako Pure Chemical Industries, Ltd.), and the incubation was continued at 37° C. for 24 hours.
(In general: Tetrazolium dyes change colour on reduction, which living cells bring about.)

Assay [2] relates to human nasopharynx cancer (KB cells). Kind of assay: Inhibition of multiplication of human nasopharynx cancer (KB cells), MTT assay. Type of assay: cell-based. Conditions: 72 hours. Here is the method:
as §1

Turning to `CCCCCCCCCCCCCCCCCCOCC(CSCCOCC[N+](C)(C)C)Oc1ncccn1.[Cl-]` (stereo not shown) [Ex. 23, N-[2-[2-[3-octadecyloxy-2-(pyrimidin-2-yloxy)propylthio]ethoxy]ethyl]-N,N,N-trimethylammonium chloride], the IC50 in assay [1] and in assay [2] was 0.63 µg/mL throughout.
`CCCCCCCCCCCCCCCCCCOCC(CS(=O)(=O)CCCOCCC[n+]1ccsc1)Oc1ncccn1` (stereo not shown) [Ex. 15, 3-[3-[3-octadecyloxy-2-(pyrimidin-2-yloxy)propylsulfonyl]propoxy]propylthiazolium chloride]: the IC50 in assay [1] and in assay [2] was 1.25 µg/mL in each case.
Turning to `CCCCCCCCCCCCCCCCCCOCC(C[S+]([O-])CCOCC[n+]1cccc2ccccc21)Oc1ncccn1` (stereo not shown) [Ex. 5, N-[2-[2-[3-octadecyloxy-2-(pyrimidin-2-yloxy)propylsulfinyl]ethoxy]quinolinium chloride], the IC50 in assay [1] is 0.32 µg/mL; in assay [2] it was 0.16 µg/mL.
Taken in the same sequence, the figures for `CCCCCCCCCCCCCCCCCCOCC(C[S+]([O-])CCOCC[n+]1ccc(N(C)C)cc1)Oc1ncccn1.[Cl-]` (stereo not shown) [Ex. 7, 4-dimethylamino-1-[2-[2-[3-octadecyloxy-2-(pyrimidin-2-yloxy)propylsulfinyl]ethoxy]ethyl]pyridinium chloride] were 0.63 µg/mL and 0.16 µg/mL.
The corresponding values for `CCCCCCCCCCCCCCCCCCOCC(CSCCOCC[n+]1ccccc1)Oc1ccncn1.[Cl-]` (stereo not shown) [Ex. 32, N-[2-[2-[3-octadecyloxy-2-(pyrimidin-4-yloxy)propylthio]ethoxy]ethyl]pyridinium chloride] are 1.25 µg/mL and 0.63 µg/mL.
Taken in the same sequence, the figures for `CCCCCCCCCCCCCCCCCCOCC(CSCCOCC[n+]1ccn(CCCCCC(=O)OCC)c1)Oc1ncccn1` (stereo not shown) [Ex. 25, 1-[(5-ethoxycarbonyl)pentyl]-3-[2-[2-[3-octadecyloxy-2-(pyrimidin-2-yloxy)propylthio]ethoxy]ethyl]imidazolium chloride] were 2.5 µg/mL and 0.32 µg/mL.
Regarding `CCCCCCCCCCCCCCCCCCOCC(C[S+]([O-])CCOCC[N+](C)(C)C)Oc1ccncn1.[Cl-]` (stereo not shown) [Ex. 35, N-[2-[2-[3-octadecyloxy-2-(pyrimidin-4-yloxy)propylsulfinyl]ethoxy]ethyl]-N,N,N-trimethylammonium chloride], the half-maximal inhibitory concentration (IC50) in assay [1] was 0.63 µg/mL; in assay [2] it was 0.16 µg/mL.
Consider `CCCCCCCCCCCCCCCCCCOCC(C[S+]([O-])CCOCC[n+]1ccc2ccccc2c1)Oc1ncccn1.[Cl-]` (stereo not shown) [Ex. 4, N-[2-[2-[3-octadecyloxy-2-(pyrimidin-2-yloxy)propylsulfinyl]ethoxy]ethyl]isoquinolinium chloride], for which the values for the half-maximal inhibitory concentration (IC50) in assay [1] and in assay [2] were 0.63 µg/mL and 0.32 µg/mL, respectively.
`CCCCCCCCCCCCCCCCCCOCC(CSCCOCC[N+]1(C)CCCC1)Oc1ncccn1.[Cl-]` (stereo not shown) [Ex. 22, N-methyl-N-[2-[2-[3-octadecyloxy-2-(pyrimidin-2-yloxy)propylthio]ethoxy]ethyl]pyrrolidinium chloride]: the concentration for half-maximal inhibition (IC50) in assay [1] came to 1.25 µg/mL; in assay [2], 0.32 µg/mL.
For `CCCCCCCCCCCCCCCCCCOCC(C[S+]([O-])CCCOCCC[n+]1ccsc1)Oc1ncccn1` (stereo not shown) [Ex. 18, 3-[3-[3-octadecyloxy-2-(pyrimidin-2-yloxy)propylsulfinyl]propoxy]propylthiazolium chloride], the IC50 in assay [1] and in assay [2] was 1.25 µg/mL each time.
On to `O=C([O-])CCCn1cc[n+](CCOCCSCC(COCCCCCCCCCCCCC2CCCCC2)Oc2ncccn2)c1` (stereo not shown) [Ex. 28], for which the IC50 turned out to be 5 µg/mL (≈ 7.56 µM) in assay [1] and 1.25 µg/mL (≈ 1.89 µM) in assay [2].
Consider `CCCCCCCCCCCCCCCCCCOCC(CSCCOCC[n+]1cccc(CCCCC(=O)[O-])c1)OC` (stereo not shown) [Ex. 46, 5-[1-[2-[2-(2-methoxy-3-octadecyloxypropylthio)ethoxy]ethyl]pyridinio-3-yl]-pentanoate], for which the values for the half-inhibitory concentration (IC50) in assay [1] and in assay [2] were 2.5 µg/mL (≈ 4.01 µM) and 0.32 µg/mL (≈ 0.513 µM), respectively.
Taken in the same sequence, the figures for `CCCCCCCCCCCCCCCCCCOCC(CSCCOCC[n+]1ccn(CCCCCC(=O)[O-])c1)Oc1ccncn1` (stereo not shown) [Ex. 33, 6-[3-[2-[2-[3-octadecyloxy-2-(pyrimidin-4-yloxy)propylthio]ethoxy]ethyl]imidazolio-1-yl]hexanoate] were 2.5 µg/mL (≈ 3.62 µM) and 0.63 µg/mL (≈ 0.912 µM).
For the compound `CCCCCCCCCCCCCCCCCCOCC(CS(=O)(=O)CCCCCOCCCCC[n+]1ccccc1)Oc1ncccn1.[Cl-]` (stereo not shown) [Ex. 42, N-[5-[5-[3-octadecyloxy-2-(pyrimidin-2-yloxy)propylsulfonyl]pentyloxy]pentyl]pyridinium chloride], the IC50 was determined as 1.25 µg/mL in assay [1] and 0.32 µg/mL in assay [2].
Taken in the same sequence, the figures for `CCCCCCCCCCCCCCCCCCOCC(CSCCOCCOCC[N+](C)(C)C)Oc1ncccn1` (stereo not shown) [Ex. 47, N-[2-[2-[2-[3-octadecyloxy-2-(pyrimidin-2-yloxy)propylthio]ethoxy]ethoxy]ethyl]-N,N,N,trimethylammonium chloride] were 1.25 µg/mL and 0.63 µg/mL.
Turning to `CCCCCCCCCCCCCCCCCCOCC(CSCCCOCCC[n+]1ccn(CCCCCC(=O)[O-])c1)Oc1ncccn1` (stereo not shown) [Ex. 13, 6-[3-[3-[3-[3-octadecyloxy-2-(pyrimidin-2-yloxy)propylthio]propoxy]propyl]imidazolio-1-yl]hexanoate], the figures for the IC50 in assay [1] and in assay [2] were 1.25 µg/mL (≈ 1.74 µM) and 0.63 µg/mL (≈ 0.876 µM), respectively.
Turning to `CCCCCCCCCCCCCCCCCCOCC(C[S+]([O-])CCOCC[n+]1ccccc1)Oc1ccncn1.[Cl-]` (stereo not shown) [Ex. 34, N-[2-[2-[3-octadecyloxy-2-(pyrimidin-4-yloxy)propylsulfinyl]ethoxy]ethyl]pyridinium chloride], the IC50 in assay [1] came to 0.63 µg/mL; in assay [2], 0.32 µg/mL.
As for `CC(C)CCCC(C)CCCC(C)CCCC(C)CCOCC(C[S+]([O-])CCOCC[n+]1ccccc1)Oc1ncccn1.[Cl-]` (stereo not shown) [Ex. 39, N-[2-[2-[2-(pyrimidin-2-yloxy)-3-(3,7,11, 15-tetramethylhexadecyloxy)propylsulfinyl]ethoxy]ethyl]-pyridinium chloride], the IC50 in assay [1] stood at 0.63 µg/mL; in assay [2], 0.16 µg/mL.
`CCCCCCCCCCCCCCCCCCOCC(CS(=O)(=O)CCOCC[n+]1ccccc1)Oc1ncccn1.[Cl-]` (stereo not shown) [Ex. 20, N-[2-[2-[3-octadecyloxy-2-(pyrimidin-2-yloxy)propylsulfonyl]ethoxy]ethyl]pyridinium chloride]: the IC50 in assay [1] is 0.63 µg/mL; in assay [2] it was < 0.08 µg/mL.
The corresponding values for `CCCCCCCCCCCCCCCCCCOCC(C[S+]([O-])CCOCC[N+]1(C)CCCC1)Oc1ncccn1.[Cl-]` (stereo not shown) [Ex. 30, N-methyl-N-[2-[2-[3-octadecyloxy-2-(pyrimidin-2-yloxy)propylsulfinyl]ethoxy]ethyl]pyrrolidinium chloride] are 0.32 µg/mL and 0.16 µg/mL.
`CC(C)CCCC(C)CCCC(C)CCCC(C)CCOCC(CSCCOCC[n+]1ccn(CCCCCC(=O)[O-])c1)Oc1ncccn1` (stereo not shown) [Ex. 38, 6-[3-[2-[2-[2-(pyrimidin-2-yloxy)-3-(3,7, 11,15-tetramethylhexadecyloxy)propylthio]ethoxy]ethyl]-imidazolio-1-yl)hexanoate]: the values for the IC50 in assay [1] and in assay [2] were 2.5 µg/mL (≈ 3.48 µM) and 0.63 µg/mL (≈ 0.876 µM), respectively.
Regarding `CCCCCCCCCCCCCCCCCCOCC(C[S+]([O-])CCOCC[N+](C)(C)C)OC.[Cl-]` (stereo not shown) [Ex. 44, N-[2-[2-(2-methoxy-3-octadecyloxypropylsulfinyl)ethoxy]ethyl]-N,N,N-trimethylammonium chloride], the IC50 in assay [1] was 0.32 µg/mL; in assay [2], 0.16 µg/mL.
For `CCCCCCCCCCCCCCCCCCOCC(CS(=O)(=O)CCCOCCC[n+]1ccccc1)Oc1ncccn1.[Cl-]` (stereo not shown) [Ex. 16, N-[3-[3-[3-octadecyloxy-2-(pyrimidin-2-yloxy)propylsulfonyl]propoxy]propyl]pyridinium chloride], the half-inhibitory concentration (IC50) is 0.63 µg/mL in assay [1] and 0.16 µg/mL in assay [2].
Taken in the same sequence, the figures for `CCCCCCCCCCCCCCCCCCOCC(CSCCOCC[N+](C)(C)C)OC` (stereo not shown) [Ex. 43, N-[2-(2-methoxy-3-oxtadecyloxypropylthio)ethoxy]ethyl-N,N,N-trimethylammonium chloride] were 1.25 µg/mL and 0.32 µg/mL.
On to `CCCCCCCCCCCCCCCCCCOCC(CSCCOCC[n+]1ccn(CCCC(=O)[O-])c1)OC` (stereo not shown) [Ex. 45, 4-[3-[2-[2(2-methoxy-3-octadecyloxypropylthio)ethoxy]ethyl]imidazolio-1-yl]butyrate], for which the IC50 worked out at 2.5 µg/mL (≈ 4.17 µM) in assay [1] and 0.63 µg/mL (≈ 1.05 µM) in assay [2].
Consider `CCCCCCCCCCCCCCCCCCOCC(CS(=O)(=O)CCCOCCC[N+](C)(C)C)Oc1ncccn1.[Cl-]` (stereo not shown) [Ex. 17, N-[3-[3-[3-octadecyloxy-2-(pyrimidin-2-yloxy)propylsulfonyl]propoxy]propyl]-N,N,N-trimethylammonium chloride], for which the 50% inhibitory concentration (IC50) amounted to 1.25 µg/mL in assay [1] and 0.32 µg/mL in assay [2].
On to `CCCCCCCCCCCCCCCCCCOCC(CSCCOCC[n+]1ccn(CCC(C)(C)C(=O)OCC)c1)Oc1ncccn1` (stereo not shown) [Ex. 26, 1-[(3-ethoxycarbonyl-3-methyl)butyl]-3-[2-[2-[3-octadecyloxy-2-(pyrimidin-2-yloxy)propylthio]-ethoxy]ethyl]imidazolium choride], for which the 50% inhibitory concentration (IC50) in assay [1] amounted to 0.63 µg/mL; in assay [2], 1.25 µg/mL.
Taken in the same sequence, the figures for `CCCCCCCCCCCCCCCCCCOCC(CSCCOCC[n+]1cccc(CCCCC(=O)[O-])c1)Oc1ncccn1` (stereo not shown) [Ex. 37, 5-[1-[2-[2-[3-octadecyloxy-2-(pyrimidin-2-yloxy)propylthio]ethoxy]ethyl]pyridinio-3-yl]pentanoate] were 5 µg/mL (≈ 7.27 µM) and 0.32 µg/mL (≈ 0.465 µM).
Taken in the same sequence, the figures for `[Cl-].[O-][S+](CCOCC[n+]1ccccc1)CC(COCCCCCCCCCCCCC1CCCCC1)Oc1ncccn1` (stereo not shown) [Ex. 29, 1-[2-[2-[3-(12-cyclohexyldodecyloxy)-2-(pyrimidin-2yloxy)propylsulfinyl]ethoxy]ethyl]pyridinium chloride] were 0.63 µg/mL and < 0.08 µg/mL.
